The values below come from ChEMBL document CHEMBL1151264, “Investigation of brominated tryptophan alkaloids from two thorectidae sponges: Thorectandra and Smenospongia” (2005).

By MIC is commonly meant the lowest concentration found to suppress growth.

≈ marks a conversion by molar mass, not a printed value.

This assay deals with Staphylococcus epidermidis. Description: Antibacterial activity against Staphylococcus epidermidis ATCC 12228. It counts as functional.
Take `CN[C@H](CC(C)C)C(=O)N[C@H]1C(=O)N[C@@H](CC(N)=O)C(=O)N[C@H]2C(=O)N[C@H]3C(=O)N[C@H](C(=O)N[C@H](C(=O)O)c4cc(O)cc(O)c4-c4cc3ccc4O)[C@H](O)c3ccc(c(Cl)c3)Oc3cc2cc(c3O[C@@H]2O[C@H](CO)[C@@H](O)[C@H](O)[C@H]2O[C@H]2C[C@](C)(N)[C@H](O)[C@H](C)O2)Oc2ccc(cc2Cl)[C@H]1O` [VANCOMYCIN]: the MIC is 0.625 µg/mL (≈ 0.431 µM). For `CN1C(=N)N(C)/C(=C/c2c[nH]c3ccccc23)C1=O` [APLYSINOPSIN] the value was 25 µg/mL (≈ 98.3 µM); for `CN1C(=N)N(C)C(Cc2c[nH]c3cc(Br)ccc23)C1=O` (stereo not given), 25 µg/mL (≈ 74.6 µM); for `CN1C(=N)N(C)C(O)(Cc2c[nH]c3cc(Br)ccc23)C1=O` (stereo not given), 12.5 µg/mL (≈ 35.6 µM). Regarding `COC(=O)c1c[nH]c2cc(Br)ccc12`, 50 µg/mL (≈ 197 µM) was the least that counted as inhibitory (MIC). In turn, `CN(C)[C@@H](Cc1c[nH]c2ccc(Br)cc12)C(=O)O` registered an MIC of 25 µg/mL (≈ 80.3 µM). As to `CCOC1(Cc2c[nH]c3cc(Br)ccc23)C(=O)N(C)C(=N)N1C` (stereo not given), the MIC came out at 12.5 µg/mL (≈ 33 µM).

With `COC(=O)Cc1c[nH]c2cc(Br)ccc12`, the lowest concentration to inhibit growth (MIC) was 6.25 µg/mL (≈ 23.3 µM).

`C[N+](C)(C)[C@@H](Cc1c[nH]c2ccc(Br)cc12)C(=O)O` returned an MIC of 100 µg/mL. To `COC1(Cc2c[nH]c3cc(Br)ccc23)C(=O)N(C)C(=N)N1C` (stereo not given) belongs 100 µg/mL (≈ 274 µM).
